Consider 24 compounds from ChEMBL document CHEMBL3882724 (2013).

Some results are limits rather than exact numbers.

This series has as its target T1, CYP21 (steroid 21-hydroxylase) (Homo sapiens, UniProt P08686).
T1 sequence (P08686 whole entry): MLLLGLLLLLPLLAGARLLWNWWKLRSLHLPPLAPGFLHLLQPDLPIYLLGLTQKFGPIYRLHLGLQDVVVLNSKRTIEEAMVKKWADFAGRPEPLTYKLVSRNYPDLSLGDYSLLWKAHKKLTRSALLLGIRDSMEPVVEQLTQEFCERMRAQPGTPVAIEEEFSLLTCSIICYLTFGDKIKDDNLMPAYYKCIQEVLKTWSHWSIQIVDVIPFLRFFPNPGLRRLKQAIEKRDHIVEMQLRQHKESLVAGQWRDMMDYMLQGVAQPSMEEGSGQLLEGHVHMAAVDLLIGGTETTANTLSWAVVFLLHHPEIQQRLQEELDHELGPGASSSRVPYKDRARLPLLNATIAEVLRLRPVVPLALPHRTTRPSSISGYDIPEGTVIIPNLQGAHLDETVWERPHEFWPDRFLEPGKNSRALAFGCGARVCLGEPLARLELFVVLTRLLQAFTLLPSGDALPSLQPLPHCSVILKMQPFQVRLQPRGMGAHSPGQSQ
Kind of series: Inhibition of human CYP21 transfected in HEK293 cells assessed as decrease in conversion of progesterone to 11-deoxycorticosterone preincubated for 5 hrs followed by progesterone addition measured after 20 hrs by ELISA. The format is cell-based. As to conditions: HEK293 cells transfected with human CYP21, probe progesterone. Details: concentration or dose not given beside the values.
Regarding `C[C@]12CC[C@H]3[C@@H](CC=C4C[C@@H](OC(=O)c5ccccc5)CC[C@@]43C)C1=CC=C2c1cccnc1`, the inhibition at 20 h fell in the range of 10 to 50%.
As for `C[C@]12CC[C@H]3[C@@H](CC=C4C=CCC[C@@]43C)C1=CC=C2c1cccnc1`, the inhibition at 20 h fell in the range of 10 to 50%.
For the compound `CC1=C2CC[C@@H]3[C@H](CC[C@]4(C)C(c5cccnc5)=CC[C@@H]34)[C@@]2(C)CC/C1=N\O`, the inhibition at 20 h was in the range of 10 to 50%.
Turning to `CNC1CC[C@@]2(C)[C@@H](CC[C@@H]3[C@@H]2CC[C@]2(C)C(c4cccnc4)=CC[C@@H]32)C1` (some centres undefined), the inhibition at 20 h lay in the range of 10 to 50%.
For the compound `C[C@]12CC[C@H](O)CC1CC[C@@H]1[C@@H]2CC[C@]2(C)C(c3cccnc3)CC[C@@H]12` (some centres undefined), the inhibition at 20 h is less than 10%.
As for `CC(C)C(=O)O[C@H]1CC[C@@]2(C)C(=CC[C@H]3C4=CC=C(c5cccnc5)[C@@]4(C)CC[C@@H]32)C1`, the inhibition at 20 h was 10 to 50%.
Turning to `CC1C[C@@H]2[C@H](CC[C@]3(C)C(c4cncc(C(F)F)c4)=CC[C@@H]23)[C@@]2(C)C=CC(=O)C=C12` (some centres undefined), the inhibition at 20 h lay within 10 to 50%.
Next, `CC1(O)C=C2CC[C@@H]3[C@H](CC[C@]4(C)C(c5cccnc5)=CC[C@@H]34)[C@@]2(C)CC1` (some centres undefined): 10 to 50%; `C[C@]12CC[C@H]3[C@@H](CCC45CC4NC(=O)CC[C@]35C)[C@@H]1CC=C2c1cccnc1` (some centres undefined): less than 10%; `C[C@]12CC[C@@H](NC(=O)c3nccs3)CC1=CC[C@@H]1[C@@H]2CC[C@]2(C)C(c3cccnc3)=CC[C@@H]12`: 10 to 50%.
Consider `C[C@]12CC[C@H](O)CC1=CC[C@@H]1[C@@H]2CC[C@]2(C)C(c3cncc(C#N)c3)=CC[C@@H]12`, for which the inhibition at 20 h was in the range of 10 to 50%.
`C[C@]12CCC3(CCC(=O)O3)CC1CC[C@@H]1[C@@H]2CC[C@]2(C)C(c3cccnc3)=CC[C@@H]12` (some centres undefined): the inhibition at 20 h was less than 10%.
Turning to `CC1(C)C(=O)CC[C@@]2(C)C1=CC[C@@H]1[C@@H]2CC[C@]2(C)C(c3cccnc3)=CC[C@@H]12`, the inhibition at 20 h is less than 10%.
On to `C[C@]12CCC(O)(CCCO)CC1CC[C@@H]1[C@@H]2CC[C@]2(C)C(c3cccnc3)=CC[C@@H]12` (some centres undefined), for which the inhibition at 20 h was 10 to 50%.
Consider `COc1cncc(C2=CC[C@H]3[C@@H]4CC[C@H]5C[C@@H](OC)CC[C@]5(C)[C@H]4CC[C@]23C)c1`, for which the inhibition at 20 h lay in the range of 10 to 50%.
Take `CNC1CC[C@@]2(C)C(CCC3[C@@H]2CC[C@]2(C)C(c4cncc(C)c4)=CC[C@@H]32)C1` (single isomer, unassigned): the inhibition at 20 h is 10 to 50%.
Consider `COC1CC[C@@]2(C)C(=CC[C@@H]3[C@@H]2CC[C@]2(C)C(c4cncc(C)c4)=CC[C@@H]32)C1` (some centres undefined), for which the inhibition at 20 h is less than 10%.
Take `C[C@]12CC[C@@](O)(C3CC3)CC1CC[C@@H]1[C@@H]2CC[C@]2(C)C(c3cccnc3)=CC[C@@H]12` (some centres undefined): the inhibition at 20 h lay in the range of 10 to 50%.
With `C[C@@]1(O)CC[C@@]2(C)C(CC[C@@H]3[C@@H]2CC[C@]2(C)C(c4cccnc4)=CC[C@@H]32)C1` (some centres undefined), the inhibition at 20 h is less than 10%.
Turning to `CC1C[C@H]2[C@@H]3CC=C(c4cncc(F)c4)[C@@]3(C)CC[C@@H]2[C@@]2(C)CC[C@H](O)CC12O` (some centres undefined), the inhibition at 20 h was in the range of 10 to 50%.
Next, `CC1C[C@@H]2[C@H](CC[C@]3(C)C(c4cncc(C(F)F)c4)=CC[C@@H]23)[C@@]2(C)CCC(=O)C=C12` (some centres undefined): 10 to 50%; `C[C@]12CC[C@H]3[C@@H](CC=C4C[C@@H](O)CC[C@@]43C)C1=CC=C2c1cncc(Cl)c1`: 10 to 50%; `Cc1ccccc1C(=O)O[C@H]1CC[C@@]2(C)C(=CC[C@H]3C4=CC=C(c5cccnc5)[C@@]4(C)CC[C@@H]32)C1`: 10 to 50%.
Regarding `CC1(O)CC2CC[C@@H]3C(CC[C@]4(C)C(c5cccnc5)=CC[C@@H]34)[C@@]2(C)C1` (single isomer, unassigned), the inhibition at 20 h was in the range of 10 to 50%.

In general, inhibition refers to the percentage by which the read-out fell short of the control.
